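Where inhibition never reached the appropriate level, the endpoint shown equals the highest concentration tested. Otherwise, values were interpolated linearly from a five-concentration, 48-hour dose response in 96-well plates. The concentration for full growth arrest is given as TGI.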
Legend:
Assay in all cases: NCI anticancer screen, dose series, 48 h
OVCAR-8 ovarian = test system: OVCAR-8 ovarian
MDA-N = test system: MDA-N
SK-MEL-28 melanoma = test system: SK-MEL-28 melanoma
SR leukemia = test system: SR leukemia
NCI/ADR-RES ovarian = test system: NCI/ADR-RES ovarian
SK-OV-3 ovarian = test system: SK-OV-3 ovarian
SF-539 CNS = test system: SF-539 CNS
U251 CNS = test system: U251 CNS
MDA-MB-435 = test system: MDA-MB-435
SK-MEL-2 melanoma = test system: SK-MEL-2 melanoma
HCT-116 colon = test system: HCT-116 colon
HL-60(TB) leukemia = test system: HL-60(TB) leukemia
HT29 colon = test system: HT29 colon
SF-295 CNS = test system: SF-295 CNS
HOP-62 NSCLC = test system: HOP-62 NSCLC
T-47D breast = test system: T-47D breast
NCI-H460 lung = test system: NCI-H460 lung

SMILES | TGI (OVCAR-8 ovarian) [µM] | TGI (MDA-N) [µM] | TGI (SK-MEL-28 melanoma) [µM] | TGI (SR leukemia) [µM] | TGI (NCI/ADR-RES ovarian) [µM] | TGI (SK-OV-3 ovarian) [µM] | TGI (SF-539 CNS) [µM] | TGI (U251 CNS) [µM] | TGI (MDA-MB-435) [µM] | TGI (SK-MEL-2 melanoma) [µM] | TGI (HCT-116 colon) [µM] | TGI (HL-60(TB) leukemia) [µM] | TGI (HT29 colon) [µM] | TGI (SF-295 CNS) [µM] | TGI (HOP-62 NSCLC) [µM] | TGI (T-47D breast) [µM] | TGI (NCI-H460 lung) [µM]
COc1ccc(C(=O)/C=C/c2ccncc2)cc1OC | 28.6 | 26.2 | 31.7 | > 100 | 42.7 | 30.9 | 22.1 | 23.2 | 28.1 | 30.8 | 18.9 | 5.02 | 21.7 | 29.9 | 29.9 | 30.9 | –
Cn1c(=O)c2c(no[n+]2[O-])c2ccccc21 | 28.3 | 87.2 | – | 52.3 | 47.3 | 77 | > 100 | 34.7 | 68.5 | 28.7 | 30.2 | – | 37.2 | 61.1 | 35.9 | 68.3 | 35.3
CN(CCN(C)C(=S)NN)C(=S)NN | – | > 100 | > 100 | > 100 | – | > 100 | – | > 100 | > 100 | > 100 | > 100 | > 100 | > 100 | > 100 | > 100 | > 100 | > 100
CC1(C)OC(=C(C#N)C#N)C(C#N)=C1/C=C/c1ccncc1 | 3.29 | 7.27 | 5.43 | 4.74 | 4.13 | 16.8 | 3.49 | 3.65 | 10.6 | 6.44 | 3.46 | – | 4.07 | 5.28 | – | 6.26 | 22.4
O=C1C[C@H]2[C@@H](O1)[C@@H](O)CN1C(=O)c3ccccc3[C@H]21 | > 100 | > 100 | > 100 | > 100 | > 100 | > 100 | > 100 | > 100 | > 100 | > 100 | > 100 | – | > 100 | > 100 | > 100 | > 100 | > 100
CC[C@]1(Cc2ccc(OC)c(OC)c2)[C@@H]2C[C@@H](C3OCCO3)ON2O[C@H](OC2CCCC2(c2ccccc2)c2ccccc2)[C@@H]1OC(C)=O (stereo partly drawn) | 46.4 | > 100 | 47.3 | 45.5 | 53.9 | > 100 | > 100 | > 100 | 46.9 | 29.5 | 50.9 | – | 42.4 | 39.1 | 41.5 | 50.3 | 34.7
Oc1ccc(-c2nc(-c3ccc(F)cc3)c(-c3ccc4ccccc4n3)[nH]2)cc1 | 32 | 27.9 | 37.7 | > 100 | 20.5 | 30.7 | – | 24.4 | 29.6 | 32.9 | 32.4 | > 100 | 20.2 | 24 | 33.4 | 25.1 | 18.4
Cn1c(N)c2c3c(sc2nc1=O)CCCC3 | > 75 | > 75 | > 75 | > 75 | > 75 | – | – | > 75 | > 75 | > 75 | > 75 | > 75 | > 75 | > 75 | > 75 | > 75 | > 75
CCCCCC(/C=C/C1CCC(=O)C1CC#C[Si](C)(C)C)OCc1ccccc1 (stereo not drawn) | 31.1 | 42.6 | > 58 | > 57.4 | 41.8 | > 100 | 46.2 | 40.6 | 41.7 | 35 | 34.9 | – | 31.1 | 39.8 | 41.5 | 85.1 | 30.7
Cc1ccc(NC(=S)NNC(=O)c2cc(-c3ccccc3)nc3ccccc23)cc1 | 47.8 | 12.7 | 20.1 | 6.72 | 48 | 30.3 | 30.1 | 20.2 | 10.9 | 24 | 21.3 | – | 55 | 17.4 | 27.8 | 21.3 | 47.9
C[C@@]12CCC3C1C=C1C(=O)c4cc(O)ccc4C(=O)[C@]1(O2)[C@@]3(C)C=O | 42.6 | 12.6 | – | 5.89 | 49.5 | 21.5 | 12.3 | 19 | 11.3 | 20.2 | 12.8 | 3.88 | 20.9 | 22 | 20.2 | 14 | 10.6
CC(=O)Nc1ccc2cc(C)c(=O)[nH]c2n1 | > 100 | > 100 | > 100 | > 100 | > 100 | > 100 | > 100 | > 100 | > 100 | > 100 | > 100 | > 100 | > 100 | > 100 | – | > 100 | > 100
O=C(O)c1cccnc1 | > 100 | > 100 | > 100 | > 100 | > 100 | – | > 100 | > 100 | > 100 | – | > 100 | > 100 | > 100 | > 100 | > 100 | > 100 | > 100
O=C(CCc1cc(O)cc(O)c1)NCCc1cc(O)cc(O)c1 | > 100 | > 100 | > 100 | > 100 | > 100 | > 100 | > 100 | > 100 | > 100 | > 100 | > 100 | – | > 100 | > 100 | > 100 | > 100 | > 100
CC(C)(C)[Si](C)(C)OC1/C(=C/C#N)C(n2ccc(=O)[nH]c2=O)OC1CO (stereo not drawn) | > 100 | > 100 | > 100 | > 100 | > 100 | > 100 | > 100 | > 100 | > 100 | > 100 | > 100 | – | > 100 | > 100 | > 100 | > 100 | > 100
CSc1ncnc2c1cnn2CCCCO | – | > 100 | > 100 | > 100 | – | > 100 | > 100 | > 100 | > 100 | > 100 | > 100 | > 100 | > 100 | > 100 | > 100 | > 100 | > 100
CC1C[C@]2(C)C(=O)Nc3ccccc3[C@@H]2Nc2ccccc21 (stereo partly drawn) | 28.9 | > 100 | 95.5 | 41.4 | 46.5 | – | 63.5 | – | 55.5 | 45 | 33.6 | 61 | 30 | > 100 | 57.4 | > 100 | 65.8
O=S(=O)(O)c1ccc(N=Nc2ccc(N=Nc3c(O)ccc4ccccc34)cc2)cc1 | > 100 | > 100 | > 100 | > 100 | > 100 | > 100 | – | > 100 | > 100 | > 100 | > 100 | > 100 | > 100 | > 100 | > 100 | > 100 | > 100
COc1ccc(C(OCC2OC(n3cc(C)c(=O)[nH]c3=O)CC2n2cc(Cn3cc(Br)c(=O)[nH]c3=O)nn2)(c2ccccc2)c2ccccc2)cc1 (stereo not drawn) | > 100 | > 100 | > 100 | > 100 | > 100 | > 100 | > 100 | > 100 | > 100 | > 100 | > 100 | 5.09 | > 100 | > 100 | > 100 | > 100 | –
CC(NNC(=O)CC(=O)N(C(=O)c1ccccc1)c1ccc(Cl)cc1)c1cc2ccccc2oc1=O (stereo not drawn) | > 10 | > 10 | > 10 | – | > 10 | > 10 | > 10 | > 10 | > 10 | > 10 | > 10 | > 10 | > 10 | > 10 | > 10 | > 10 | > 10
O=[N+]([O-])c1cc2c(c3nonc13)OCCCCO2 | 14.2 | 16.4 | 22.5 | – | 62.6 | 65 | 7.27 | 45.5 | 17.9 | 29.2 | 3.46 | 5.15 | 21.1 | 31.6 | 16.2 | 60.5 | 14
CCOC(=O)C1=C(N)Oc2ccc(Br)cc2C1C(C#N)C(=O)OCC (stereo not drawn) | 45.1 | 54.9 | 32.4 | > 100 | 41 | 47.1 | 40.3 | 33.8 | 37.9 | 39.1 | 42.2 | > 100 | – | > 100 | > 100 | 53.1 | > 100
CCOP(=O)(O)C(C)(C)NC | > 100 | > 100 | > 100 | – | > 100 | > 100 | > 100 | > 100 | > 100 | > 100 | > 100 | > 100 | > 100 | > 100 | > 100 | > 100 | > 100
CN1C(=O)C(CC=O)(C(C)(C)C)c2ccccc21 (stereo not drawn) | – | > 100 | > 100 | > 100 | > 100 | > 100 | – | > 100 | > 100 | > 100 | > 100 | > 100 | – | > 100 | > 100 | > 100 | > 100
CCCCn1c(C)c2c(c1C)C(=O)N(CC(O)CN1CCc3ccccc3C1)C2=O (stereo not drawn) | > 100 | > 100 | > 100 | – | > 100 | > 100 | > 100 | > 100 | > 100 | 14.8 | > 100 | > 100 | > 100 | > 100 | > 100 | > 100 | > 100
COc1ccc(CCN=C2OCc3ccccc32)cc1OC | > 100 | > 100 | > 100 | 62.3 | > 100 | > 100 | 63.2 | > 100 | > 100 | > 100 | 71.3 | 32.6 | > 100 | > 100 | – | 86.6 | > 100
Cc1ccc(-c2c3c(n(C4OC(CO)C(O)C(O)C4O)c(=S)c2C#N)CC(C)(C)CC3=O)cc1 (stereo not drawn) | > 100 | > 100 | > 100 | > 100 | > 100 | – | > 100 | > 100 | > 100 | > 100 | > 100 | > 100 | > 100 | > 100 | > 100 | > 100 | > 100
O=C1NN=C2C=C(c3ccc(Cl)cc3)CC(c3cccc(Cl)c3)C12 (stereo not drawn) | > 100 | 65.3 | – | 41.7 | > 100 | > 100 | 55.7 | 39.9 | 40.2 | 45.3 | 41 | 49.1 | 51.4 | 38.4 | > 100 | > 100 | 47.2
O=C(/C=C/C=C/c1ccccc1)c1ccc2c(c1)CCCC2 | > 100 | 62.8 | > 100 | 87.9 | 65.8 | > 100 | > 100 | > 100 | 40.8 | > 100 | > 100 | – | > 100 | > 100 | > 100 | 93.9 | –
